In US7056663B2, “Prognostic methods for breast cancer” (California Pacific Medical Center, priority 2001, dated 2006):

Tested on: TRβ1 gene
Experiment: RT-PCR for TRβ1 transcript in breast cancer cell lines after 5-azaC treatment
Format: cell-based
Settings: MCF7 breast cancer cell line
Description: The region of most common LOH in the experiments described in Example I include the region of the TRβ1 gene. Therefore, we evaluated TRβ1 gene expression in breast cancer cell lines by RT-PCR, using primers encompassing exons 4–7. The primers used for RT-PCR of the TRβ1 transcript were TRβ-F 5′ […] 3′ (forward) (SEQ ID NO:1) and TRβ-R 5′ TGAGCTCCCATTCCTCGTC 3′ (reverse) (SEQ ID NO:2). Presence of a TRβ1 transcript was indicated by the presence of a 500 bp RT-PCR product using template mRNA isolated from non-cancerous or breast cancer cell lines. As a control, corresponding GAPDH transcript levels for each sample was measured within the same PCR reaction mixture by amplifying a 250 bp fragment using the following primers 5′ […] 3′ (forward) (SEQ ID NO:3) and 5′ […] 3′ (reverse) (SEQ ID NO:4). […] Fluorescent in situ hybribization (FISH) analysis was carried out on the cells to determine the copy number of the TRβ1 gene. FISH data is reported as the percentage of cells in which TRβ1 copy number was fewer than the centromeric signal for chromosome 3. The breast cancer cell lines that were used in this study include DU4475, MDA435, SKBR3, MCF7, BT20, MDA157, MDA231, BT474, CAMA1 and T47D. All of these cell lines are available from American Type Culture Collection, Manassas, Va.

In the case of `Nc1ncn([C@@H]2O[C@H](CO)[C@@H](O)[C@H]2O)c(=O)n1` [5-azaC], the “RT-PCR for TRβ1, before versus after 5-aza C treatment” value is reported as “*RT-PCR for MCF7 was the same before and after 5-aza C treatment”.
